Compound in assay [1]: NC(=O)CCCCC1CCSS1 [lipoamide]
Description: thermal stability z-score vs DMSO; higher = more thermally stabilized by treatment. The note with it: HeLa, lipoamide concentration 100 µM. As to the method: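 Cellular thermal proteome profiling in HeLa cells. Cells were treated with 100 µM lipoamide for 1 h, with or without 1 mM arsenate for a further 1 h, then heated to ten temperatures (37-66.3 °C), and soluble protein was quantified by TMT mass spectrometry relative to 0.1% DMSO controls. The thermal stability score (sum of log2 fold changes minus the abundance score) was transformed to a z-score; mean of n = 3 experiments.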

Compound in assay [2]: O=[As]([O-])(O)O.[K+] [potassium arsenate]
The assay is described as above. The note with it: HeLa; arsenate concentration 1 mM. How it is done: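 Cellular thermal proteome profiling in HeLa cells treated with 1 mM arsenate for 1 h (DMSO pretreatment), heated to ten temperatures (37-66.3 °C). Soluble protein was quantified by TMT mass spectrometry relative to DMSO controls; the thermal stability score was transformed to a z-score; mean of n = 3 experiments.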

[3] abbreviates: arsenate co-treatment: 1 mM arsenate 1 h.
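Note: each temperature applied for 3 min, abundance score taken as mean log2 fold change at the two lowest temperatures, z-score obtained by mean subtraction and division by SD.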

Sequence of UniProt P30044 (P30044 whole entry): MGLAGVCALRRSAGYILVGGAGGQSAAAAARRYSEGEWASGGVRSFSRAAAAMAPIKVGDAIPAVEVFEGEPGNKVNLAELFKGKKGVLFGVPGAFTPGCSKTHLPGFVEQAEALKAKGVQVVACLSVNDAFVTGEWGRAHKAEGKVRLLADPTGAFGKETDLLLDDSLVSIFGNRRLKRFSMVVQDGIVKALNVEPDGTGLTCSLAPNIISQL
Sequence of UniProt Q13769 (Q13769 whole entry): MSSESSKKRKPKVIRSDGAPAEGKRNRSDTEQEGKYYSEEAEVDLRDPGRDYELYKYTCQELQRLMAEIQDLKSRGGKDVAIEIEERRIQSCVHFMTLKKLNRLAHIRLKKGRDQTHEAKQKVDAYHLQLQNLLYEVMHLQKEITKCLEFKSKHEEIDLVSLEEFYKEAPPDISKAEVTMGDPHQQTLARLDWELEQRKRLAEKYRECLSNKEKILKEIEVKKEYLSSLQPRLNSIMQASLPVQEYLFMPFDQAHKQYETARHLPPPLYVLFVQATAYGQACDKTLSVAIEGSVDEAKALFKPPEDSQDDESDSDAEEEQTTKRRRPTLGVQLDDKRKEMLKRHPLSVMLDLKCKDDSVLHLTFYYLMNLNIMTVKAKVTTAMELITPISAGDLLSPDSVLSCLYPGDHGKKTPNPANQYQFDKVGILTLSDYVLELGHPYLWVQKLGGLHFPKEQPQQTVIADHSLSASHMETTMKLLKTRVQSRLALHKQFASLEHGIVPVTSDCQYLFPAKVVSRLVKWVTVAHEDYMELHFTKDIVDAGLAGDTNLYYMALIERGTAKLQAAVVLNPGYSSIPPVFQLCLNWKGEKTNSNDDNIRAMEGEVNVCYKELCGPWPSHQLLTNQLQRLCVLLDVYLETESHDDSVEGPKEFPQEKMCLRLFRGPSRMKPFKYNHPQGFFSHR
Sequence of UniProt Q05932 (Q05932 whole entry): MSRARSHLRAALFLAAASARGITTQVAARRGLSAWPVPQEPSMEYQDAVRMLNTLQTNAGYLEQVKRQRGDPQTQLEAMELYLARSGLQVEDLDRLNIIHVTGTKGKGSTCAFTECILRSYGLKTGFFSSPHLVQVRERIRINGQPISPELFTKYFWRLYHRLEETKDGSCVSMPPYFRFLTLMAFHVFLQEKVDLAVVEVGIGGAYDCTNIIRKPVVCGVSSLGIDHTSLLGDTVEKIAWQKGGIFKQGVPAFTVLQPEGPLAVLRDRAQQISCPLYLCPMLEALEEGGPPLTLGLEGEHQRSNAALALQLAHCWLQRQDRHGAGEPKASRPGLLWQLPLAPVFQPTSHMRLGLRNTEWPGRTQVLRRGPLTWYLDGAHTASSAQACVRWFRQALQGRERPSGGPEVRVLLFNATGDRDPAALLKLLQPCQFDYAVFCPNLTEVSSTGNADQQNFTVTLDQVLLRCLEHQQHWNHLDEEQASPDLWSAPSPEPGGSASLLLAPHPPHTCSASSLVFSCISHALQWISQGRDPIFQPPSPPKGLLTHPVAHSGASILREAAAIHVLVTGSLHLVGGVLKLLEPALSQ
Sequence of UniProt Q08379 (Q08379 whole entry): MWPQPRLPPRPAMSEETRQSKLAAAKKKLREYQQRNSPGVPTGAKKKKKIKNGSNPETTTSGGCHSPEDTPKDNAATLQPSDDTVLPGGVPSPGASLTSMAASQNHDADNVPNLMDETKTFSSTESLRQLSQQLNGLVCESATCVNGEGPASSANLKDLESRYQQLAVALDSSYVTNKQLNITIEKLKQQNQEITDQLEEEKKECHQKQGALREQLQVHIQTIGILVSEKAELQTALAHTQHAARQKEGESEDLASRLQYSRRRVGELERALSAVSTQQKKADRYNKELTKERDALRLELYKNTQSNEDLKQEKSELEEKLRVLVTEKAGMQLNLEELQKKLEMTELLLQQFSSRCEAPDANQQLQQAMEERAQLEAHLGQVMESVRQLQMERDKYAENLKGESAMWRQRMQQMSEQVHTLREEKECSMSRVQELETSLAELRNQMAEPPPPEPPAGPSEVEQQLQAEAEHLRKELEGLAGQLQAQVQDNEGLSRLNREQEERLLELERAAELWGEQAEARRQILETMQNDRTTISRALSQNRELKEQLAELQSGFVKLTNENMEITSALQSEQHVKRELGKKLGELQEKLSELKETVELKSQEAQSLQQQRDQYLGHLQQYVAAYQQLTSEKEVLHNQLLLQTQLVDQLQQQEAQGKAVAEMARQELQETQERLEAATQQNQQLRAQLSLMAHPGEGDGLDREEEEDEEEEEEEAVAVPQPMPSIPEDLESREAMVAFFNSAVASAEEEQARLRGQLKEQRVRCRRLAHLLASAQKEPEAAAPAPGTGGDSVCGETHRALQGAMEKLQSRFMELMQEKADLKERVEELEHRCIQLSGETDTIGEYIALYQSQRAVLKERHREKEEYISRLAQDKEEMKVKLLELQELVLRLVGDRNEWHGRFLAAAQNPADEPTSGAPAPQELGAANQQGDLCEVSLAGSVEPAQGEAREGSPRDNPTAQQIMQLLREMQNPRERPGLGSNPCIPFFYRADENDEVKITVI
Sequence of UniProt Q96EX3 (Q96EX3 whole entry): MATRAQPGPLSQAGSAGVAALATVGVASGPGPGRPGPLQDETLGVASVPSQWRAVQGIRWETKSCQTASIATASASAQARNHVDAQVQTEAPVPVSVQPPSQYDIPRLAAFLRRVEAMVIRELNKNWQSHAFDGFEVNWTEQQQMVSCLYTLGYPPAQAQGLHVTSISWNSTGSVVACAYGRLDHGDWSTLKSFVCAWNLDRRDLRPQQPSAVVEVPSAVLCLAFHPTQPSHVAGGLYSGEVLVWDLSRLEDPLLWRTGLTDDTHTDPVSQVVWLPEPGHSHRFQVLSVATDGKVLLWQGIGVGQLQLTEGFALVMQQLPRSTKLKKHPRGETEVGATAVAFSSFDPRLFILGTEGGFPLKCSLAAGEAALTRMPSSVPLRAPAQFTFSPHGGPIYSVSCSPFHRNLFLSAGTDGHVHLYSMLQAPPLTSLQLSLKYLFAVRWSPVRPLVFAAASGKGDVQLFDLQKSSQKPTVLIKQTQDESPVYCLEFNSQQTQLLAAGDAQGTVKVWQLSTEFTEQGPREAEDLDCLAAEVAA
Sequence of UniProt Q9H410 (Q9H410 whole entry): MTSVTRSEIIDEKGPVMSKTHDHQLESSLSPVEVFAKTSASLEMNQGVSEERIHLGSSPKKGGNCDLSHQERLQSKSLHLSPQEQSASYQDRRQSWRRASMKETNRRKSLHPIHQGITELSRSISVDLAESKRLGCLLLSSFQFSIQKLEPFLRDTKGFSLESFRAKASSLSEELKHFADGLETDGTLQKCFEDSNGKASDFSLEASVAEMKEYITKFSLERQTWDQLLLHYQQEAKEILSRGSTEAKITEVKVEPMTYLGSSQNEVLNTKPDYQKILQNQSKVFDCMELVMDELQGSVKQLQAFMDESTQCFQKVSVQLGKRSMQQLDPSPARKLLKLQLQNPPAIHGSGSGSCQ
Sequence of UniProt Q9H2K8 (Q9H2K8 whole entry): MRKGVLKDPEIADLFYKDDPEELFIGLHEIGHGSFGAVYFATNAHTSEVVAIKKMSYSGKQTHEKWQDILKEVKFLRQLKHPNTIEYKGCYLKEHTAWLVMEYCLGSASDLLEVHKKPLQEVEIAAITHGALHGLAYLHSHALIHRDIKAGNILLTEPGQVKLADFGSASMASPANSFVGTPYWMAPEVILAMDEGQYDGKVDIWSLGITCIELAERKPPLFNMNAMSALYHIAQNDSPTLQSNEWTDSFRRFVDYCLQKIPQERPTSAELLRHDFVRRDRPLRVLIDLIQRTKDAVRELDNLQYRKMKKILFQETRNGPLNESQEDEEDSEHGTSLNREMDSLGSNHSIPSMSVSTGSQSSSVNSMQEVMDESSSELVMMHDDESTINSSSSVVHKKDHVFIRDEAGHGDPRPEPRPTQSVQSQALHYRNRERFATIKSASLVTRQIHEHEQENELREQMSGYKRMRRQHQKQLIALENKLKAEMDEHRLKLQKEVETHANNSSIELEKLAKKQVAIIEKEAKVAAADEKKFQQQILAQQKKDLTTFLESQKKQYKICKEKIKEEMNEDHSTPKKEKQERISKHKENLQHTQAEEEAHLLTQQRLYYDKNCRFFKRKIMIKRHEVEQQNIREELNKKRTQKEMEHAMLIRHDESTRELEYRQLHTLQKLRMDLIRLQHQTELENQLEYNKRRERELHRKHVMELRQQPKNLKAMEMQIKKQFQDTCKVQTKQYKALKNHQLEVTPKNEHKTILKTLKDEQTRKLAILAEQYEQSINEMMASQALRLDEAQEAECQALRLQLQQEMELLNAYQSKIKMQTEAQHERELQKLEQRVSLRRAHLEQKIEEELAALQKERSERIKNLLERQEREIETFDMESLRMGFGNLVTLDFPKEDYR
Sequence of UniProt O14734 (O14734 whole entry): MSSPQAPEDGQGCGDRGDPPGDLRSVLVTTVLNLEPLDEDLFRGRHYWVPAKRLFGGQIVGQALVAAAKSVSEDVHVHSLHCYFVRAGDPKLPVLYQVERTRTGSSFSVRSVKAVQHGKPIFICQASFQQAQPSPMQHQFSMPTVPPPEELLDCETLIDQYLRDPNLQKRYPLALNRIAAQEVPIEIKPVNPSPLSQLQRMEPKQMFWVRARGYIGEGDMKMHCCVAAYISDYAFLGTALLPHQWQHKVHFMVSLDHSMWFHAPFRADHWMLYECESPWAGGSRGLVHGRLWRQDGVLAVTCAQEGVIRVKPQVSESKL
Sequence of UniProt Q96BW1 (Q96BW1 whole entry): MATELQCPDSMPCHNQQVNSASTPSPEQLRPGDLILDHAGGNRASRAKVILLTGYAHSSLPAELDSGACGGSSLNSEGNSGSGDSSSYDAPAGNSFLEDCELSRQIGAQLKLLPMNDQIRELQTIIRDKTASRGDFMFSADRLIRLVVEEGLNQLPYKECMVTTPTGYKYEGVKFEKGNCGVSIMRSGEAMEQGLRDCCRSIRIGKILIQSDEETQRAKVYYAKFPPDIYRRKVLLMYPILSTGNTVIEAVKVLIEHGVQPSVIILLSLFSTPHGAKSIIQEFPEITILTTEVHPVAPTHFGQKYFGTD

In the case of PLPP2 (UniProt O43688), the values for the thermal stability z-score in assay [1] (setting [3]), in assay [1] (arsenate co-treatment: none) and in assay [2] were -0.387, -0.14 and -0.114, respectively.

Turning to ACIN1 (UniProt Q9UKV3), the thermal stability z-score in assay [1] (setting [3]) was 1.66; in assay [1] (arsenate co-treatment: none), 0.763; in assay [2], 0.115.

As to SPG20 (UniProt Q8N0X7), the thermal stability z-score in assay [1] (setting [3]) turned out to be 0.715; in assay [1] (arsenate co-treatment: none) it was 0.609; in assay [2], 0.193.

In the case of UPRT (UniProt Q96BW1), the thermal stability z-score in assay [1] (setting [3]) was -0.0247; in assay [1] (arsenate co-treatment: none) it was -0.292; in assay [2], 0.289.

On to OFD1 (UniProt O75665), for which the figures for the thermal stability z-score in assay [1] (setting [3]), in assay [1] (arsenate co-treatment: none) and in assay [2] were -0.239, 0.0566 and -0.000259, respectively.

For the target ASCC2 (UniProt Q9H1I8), the figures for the thermal stability z-score in assay [1] (setting [3]), in assay [1] (arsenate co-treatment: none) and in assay [2] were -0.0905, 0.388 and 1.51, respectively.

As to ETFA (UniProt P13804), the thermal stability z-score in assay [1] (setting [3]) was -0.622; in assay [1] (arsenate co-treatment: none), 0.0342; in assay [2] it was -1.17.

For the target FPGS (UniProt Q05932), the thermal stability z-score was 0.0221 in assay [1] (setting [3]), -0.181 in assay [1] (arsenate co-treatment: none) and 0.864 in assay [2].

For the target SPIN1 (UniProt Q9Y657), the thermal stability z-score was 0.0956 in assay [1] (setting [3]), 0.212 in assay [1] (arsenate co-treatment: none) and -0.0902 in assay [2].

Turning to CAPN7 (UniProt Q9Y6W3), the thermal stability z-score in assay [1] (setting [3]) is 0.28; in assay [1] (arsenate co-treatment: none) it was 0.65; in assay [2], 0.922.

Take WDR34 (UniProt Q96EX3): the thermal stability z-score is -0.251 in assay [1] (setting [3]), -0.215 in assay [1] (arsenate co-treatment: none) and -0.776 in assay [2].

Regarding TAOK3 (UniProt Q9H2K8), the thermal stability z-score in assay [1] (setting [3]) amounted to 0.238; in assay [1] (arsenate co-treatment: none), 0.142; in assay [2] it was 0.0629.

For the target TJP1 (UniProt Q07157), the thermal stability z-score in assay [1] (setting [3]) is 0.078; in assay [1] (arsenate co-treatment: none), -0.0866; in assay [2], 0.371.

In the case of POLR2E (UniProt P19388), the thermal stability z-score in assay [1] (setting [3]) is 0.281; in assay [1] (arsenate co-treatment: none), 0.459; in assay [2] it was -1.34.

Turning to GOLGA2 (UniProt Q08379), the thermal stability z-score in assay [1] (setting [3]) is -0.426; in assay [1] (arsenate co-treatment: none) it was -0.0551; in assay [2], 0.679.

For ACOT8 (UniProt O14734), the thermal stability z-score in assay [1] (setting [3]) is 0.492; in assay [1] (arsenate co-treatment: none), 0.113; in assay [2], 0.0313.

For the target ICT1 (UniProt Q14197), the thermal stability z-score in assay [1] (setting [3]) was -0.321; in assay [1] (arsenate co-treatment: none) it was -0.282; in assay [2], -0.225.

Turning to UTP6 (UniProt Q9NYH9), the thermal stability z-score in assay [1] (setting [3]) is 0.13; in assay [1] (arsenate co-treatment: none) it was -0.00953; in assay [2] it was 0.272.

On to RHOT1 (UniProt Q8IXI2), for which the results for the thermal stability z-score in assay [1] (setting [3]), in assay [1] (arsenate co-treatment: none) and in assay [2] were -0.488, -0.262 and -0.708, respectively.

For DSN1 (UniProt Q9H410), the thermal stability z-score in assay [1] (setting [3]) is 0.0417; in assay [1] (arsenate co-treatment: none), -0.0069; in assay [2], 0.127.

PDHA1 (UniProt P08559): the thermal stability z-score is 0.0392 in assay [1] (setting [3]), 0.295 in assay [1] (arsenate co-treatment: none) and -2.51 in assay [2].

Take PRDX5 (UniProt P30044): the thermal stability z-score in assay [1] (setting [3]) was -0.275; in assay [1] (arsenate co-treatment: none), 0.138; in assay [2], -0.761.

As for THOC5 (UniProt Q13769), the thermal stability z-score in assay [1] (setting [3]) was determined as 0.945; in assay [1] (arsenate co-treatment: none) it was 0.187; in assay [2], 0.536.

The values are drawn from the supplement of paper PMC12463676, “Small-molecule dissolution of stress granules by redox modulation benefits ALS models” (Nature Chemical Biology, 2025).
